# Tested on: E2-induced (ER target) genes in MCF7
# Test: Gene expression analysis by RNA-sequencing in MCF7 with E2 stimulation
# Assay type: cell-based, human
# Settings: MCF7; 1 nM E2 ± 1 μM compound, 24 h
# Method: MCF7 were cultured in hormone deprivation media (with 10% charcoal-stripped FBS) for at least 3 days before assay. Trypsinized cells were seeded in a 12-well plate, stimulated with 1 nM β-estradiol (E2), and treated with/without 1 μM compounds for 24 h. Total RNA was extracted using the TRIzol reagent according to the manufacturer’s protocol. RNA purity and quantification were evaluated using the NanoDrop 2000 spectrophotometer (Thermo Scientific, USA). RNA integrity was assessed using the Agilent 2100 Bioanalyzer (Agilent Technologies, Santa Clara, CA, USA). Then the libraries were constructed using TruSeq Stranded mRNA LT Sample Prep Kit (Illumina, San Diego, CA, USA) according to the manufacturer’s instructions. The transcriptome sequencing and analysis were conducted by OE Biotech Co., Ltd. (Shanghai, China). The libraries were sequenced on an Illumina HiSeq X Ten platform and 150 bp paired-end reads were generated. […] Raw data (raw reads) of FASTq format were firstly processed using Trimmomatic and the low-quality reads were removed to obtain the clean reads. […] The clean reads were mapped to the human genome (GRCh38) using HISAT2 [27]. FPKM [28] of each gene was calculated using Cufflinks, and the read counts of each gene were obtained by HTSeqcount. Differential expression analysis was performed using the DESeq (2012) R package.
# MCF7 with hormone-deprived pre-treatment were administrated ER ligands or not present with 1 nM E2 stimulation for 24 h incubation in a 12-well plate. Total mRNA was isolated from treated cells and sequenced on an Illumina HiSeq X Ten platform. FPKM of each gene was calculated using Cufflinks and Differential expression genes analysis by using the DESeq (2012) R package. […] T47D EFM-19 and HCC1500 cells were grown in RPMI media supplemented with 10% charcoal-stripped FBS for 14 days and then treated with ER antagonist (1 μM) or DMSO in the presence E2 (1nM) stimulation for 24 h before RNA isolation and gene expression analysis as described in methods. […] The uteruses were harvested 24 h after the final doses and stained by toluidine blue. Endometrial height was assessed from the basement membrane to the luminal border (scale bar in green lines: 200 μm), Arrows indicate the uterine epithelium (e).
smiles,measurement,value
"C[C@]12CC[C@@H]3c4ccc(O)cc4CC[C@H]3[C@@H]1CC[C@@H]2O [E2, β-estradiol]",ACTG2 expression,3.78 FPKM
same,ADCY1 expression,29.74 FPKM
same,AGR3 expression,24.59 FPKM
same,AMZ1 expression,3.24 FPKM
same,ANLN expression,47.32 FPKM
same,ARHGAP36 expression,3.84 FPKM
same,ASCL1 expression,5.48 FPKM
same,ASF1B expression,78.22 FPKM
same,ASMTL-2 expression,6.46 FPKM
same,ATAD2 expression,69.95 FPKM
same,ATRNL1 expression,0.42 FPKM
same,AURKB expression,43.03 FPKM
same,BIRC5 expression,50.28 FPKM
same,BLM expression,8.02 FPKM
same,BMPER expression,1.39 FPKM
same,BRCA1 expression,9.45 FPKM
same,BRCA2 expression,5.65 FPKM
same,BRIP1 expression,54.99 FPKM
same,BUB1B expression,18.35 FPKM
same,C1orf226 expression,13.05 FPKM
same,C5AR2 expression,3.18 FPKM
same,CA2 expression,184.51 FPKM
same,CA12 expression,52.56 FPKM
same,CALCR expression,6.65 FPKM
same,CAV1 expression,11.53 FPKM
same,CCN5 expression,50.43 FPKM
same,CCNA2 expression,35.91 FPKM
same,CCNE2 expression,17.15 FPKM
same,CD99-2 expression,8.67 FPKM
same,CDC6 expression,16.34 FPKM
same,CDC25A expression,7.21 FPKM
same,CDC45 expression,22.61 FPKM
same,CDCA3 expression,12.59 FPKM
same,CDCA4 expression,35.30 FPKM
same,CDCA5 expression,32.97 FPKM
same,CDCA7 expression,8.46 FPKM
same,CDH26 expression,1.84 FPKM
same,CDK1 expression,34.56 FPKM
same,CDT1 expression,51.94 FPKM
same,CENPI expression,6.53 FPKM
same,CENPU expression,12.95 FPKM
same,CHAF1B expression,5.21 FPKM
same,CHEK1 expression,5.59 FPKM
same,CKS1B expression,97.65 FPKM
same,CLSPN expression,5.95 FPKM
same,COL12A1 expression,4.88 FPKM
same,CXCL12 expression,18.59 FPKM
same,DDIAS expression,9.79 FPKM
same,DHRSX-2 expression,1.19 FPKM
same,DKK1 expression,65.08 FPKM
same,DNA2 expression,7.03 FPKM
same,DPYSL5 expression,1.59 FPKM
same,DSCC1 expression,15.71 FPKM
same,DTL expression,6.96 FPKM
same,E2F1 expression,27.20 FPKM
same,E2F2 expression,5.64 FPKM
same,E2F7 expression,9.64 FPKM
same,E2F8 expression,10.32 FPKM
same,ELOVL2 expression,16.88 FPKM
same,EME1 expression,10.05 FPKM
same,ERCC6L expression,4.70 FPKM
same,ESCO2 expression,7.26 FPKM
same,ESPL1 expression,17.48 FPKM
same,EXO1 expression,10.16 FPKM
same,FAM20A expression,2.20 FPKM
same,FAM111B expression,12.41 FPKM
same,FANCA expression,22.66 FPKM
same,FANCD2 expression,15.48 FPKM
same,FANCI expression,48.65 FPKM
same,FEN1 expression,69.25 FPKM
same,FIGNL1 expression,5.08 FPKM
same,FKBP4 expression,141.57 FPKM
same,GATA4 expression,0.17 FPKM
same,GFRA1 expression,93.16 FPKM
same,GINS1 expression,23.84 FPKM
same,GINS2 expression,36.18 FPKM
same,GJA1 expression,1.09 FPKM
same,GLA expression,91.41 FPKM
same,GP1BB expression,2.96 FPKM
same,GPR68 expression,2.46 FPKM
same,GPRIN1 expression,8.93 FPKM
same,GREB1 expression,60.67 FPKM
same,H2AX expression,195.62 FPKM
same,HBB expression,2.07 FPKM
same,HELLS expression,7.42 FPKM
same,HEY2 expression,5.27 FPKM
same,HMGB2 expression,247.66 FPKM
same,IGFBP4 expression,131.73 FPKM
same,IGSF1 expression,11.09 FPKM
same,ITGA2B expression,1.22 FPKM
same,KIF11 expression,25.57 FPKM
same,KIF18B expression,9.55 FPKM
same,KIFC1 expression,32.81 FPKM
same,KLK11 expression,14.79 FPKM
same,KNL1 expression,7.74 FPKM
same,KNTC1 expression,15.58 FPKM
same,LHX2 expression,3.63 FPKM
same,LIG1 expression,50.95 FPKM
same,LMNB1 expression,103.66 FPKM
same,MAD2L1 expression,15.82 FPKM
same,MCM2 expression,79.68 FPKM
same,MCM3 expression,73.54 FPKM
same,MCM4 expression,90.54 FPKM
same,MCM5 expression,31.11 FPKM
same,MCM6 expression,49.04 FPKM
same,MCM7 expression,195.09 FPKM
same,MCM10 expression,11.30 FPKM
same,MELK expression,23.52 FPKM
same,MKI67 expression,43.57 FPKM
same,MYB expression,14.56 FPKM
same,MYBL1 expression,7.63 FPKM
same,MYBL2 expression,105.97 FPKM
same,NCAPG2 expression,42.44 FPKM
same,NCAPG expression,16.64 FPKM
same,NPY1R expression,21.66 FPKM
same,ORC1 expression,9.75 FPKM
same,ORC6 expression,17.34 FPKM
same,PAQR4 expression,27.39 FPKM
same,PBK expression,34.81 FPKM
same,PCLAF expression,64.57 FPKM
same,PCNA expression,139.06 FPKM
same,PDZK1 expression,5.01 FPKM
same,PGR expression,8.19 FPKM
same,PKIB expression,60.35 FPKM
same,PKMYT1 expression,41.08 FPKM
same,POLA1 expression,6.08 FPKM
same,POLA2 expression,14.49 FPKM
same,POLD1 expression,24.97 FPKM
same,POLE2 expression,6.15 FPKM
same,POLE expression,25.41 FPKM
same,POLQ expression,6.41 FPKM
same,PRIM1 expression,28.80 FPKM
same,PRSS23 expression,215.68 FPKM
same,RAB31 expression,21.61 FPKM
same,RAD51AP1 expression,13.82 FPKM
same,RAD51 expression,9.69 FPKM
same,RAD54L expression,12.35 FPKM
same,RAMP3 expression,13.53 FPKM
same,RAPGEFL1 expression,7.70 FPKM
same,RBL1 expression,5.83 FPKM
same,RECQL4 expression,32.15 FPKM
same,RERG expression,8.59 FPKM
same,RET expression,10.12 FPKM
same,RFC2 expression,36.71 FPKM
same,RFC3 expression,9.92 FPKM
same,RFC4 expression,27.17 FPKM
same,RNASEH2A expression,63.93 FPKM
same,RRM1 expression,40.40 FPKM
same,RRM2 expression,98.16 FPKM
same,RUBCNL expression,1.40 FPKM
same,SDK2 expression,1.00 FPKM
same,SFXN2 expression,31.80 FPKM
same,SHCBP1 expression,7.21 FPKM
same,SKA3 expression,14.05 FPKM
same,SLC6A14 expression,33.54 FPKM
same,SMC2 expression,14.75 FPKM
same,SPC24 expression,17.07 FPKM
same,SPC25 expression,16.49 FPKM
same,STC2 expression,134.11 FPKM
same,TACC3 expression,40.66 FPKM
same,TCF19 expression,21.19 FPKM
same,TCOF1 expression,21.81 FPKM
same,TGM2 expression,1.78 FPKM
same,TICRR expression,10.96 FPKM
same,TK1 expression,126.85 FPKM
same,TMEM26 expression,4.29 FPKM
same,TMEM164 expression,18.93 FPKM
same,TONSL expression,21.56 FPKM
same,TOP2A expression,69.34 FPKM
same,TP73 expression,3.93 FPKM
same,TRIP13 expression,21.48 FPKM
same,TUBA1B expression,1112.26 FPKM
same,TUBB expression,568.06 FPKM
same,TYMS expression,74.96 FPKM
same,UBE2C expression,67.26 FPKM
same,UBE2T expression,108.61 FPKM
same,UHRF1 expression,26.62 FPKM
same,UNG expression,64.43 FPKM
same,WDHD1 expression,10.21 FPKM
same,WDR62 expression,15.52 FPKM
same,WDR76 expression,5.46 FPKM
same,XRCC2 expression,7.64 FPKM
same,XRCC3 expression,19.64 FPKM
same,ZGRF1 expression,3.51 FPKM
same,ZNF367 expression,15.85 FPKM
